Laboratory results as given in PubChem BioAssay (NCI).
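Test compounds were applied to cells in 96-well plates for 48 hours at 5 doses. GI50 = concentration required for 50% inhibition of growth. TGI: concentration producing complete growth inhibition.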

Key:
Experiment in all cases: NCI tumour cell line growth inhibition, 48 h; in the data active = GI50 below about 0.43 µM; inactive = the rest
KM12 colon = system: KM12 colon
MDA-MB-231 breast = system: MDA-MB-231 breast
HOP-92 NSCLC = system: HOP-92 NSCLC
NCI-H522 lung = system: NCI-H522 lung
CCRF-CEM leukemia = system: CCRF-CEM leukemia
OVCAR-8 ovarian = system: OVCAR-8 ovarian
786-0 renal = system: 786-0 renal
DU-145 prostate = system: DU-145 prostate
SNB-75 CNS = system: SNB-75 CNS
SR leukemia = system: SR leukemia
EKVX NSCLC = system: EKVX NSCLC
OVCAR-5 ovarian = system: OVCAR-5 ovarian
SK-MEL-5 melanoma = system: SK-MEL-5 melanoma
SK-OV-3 ovarian = system: SK-OV-3 ovarian
TK-10 renal = system: TK-10 renal
M14 melanoma = system: M14 melanoma
SNB-19 CNS = system: SNB-19 CNS
OVCAR-4 ovarian = system: OVCAR-4 ovarian
PC-3 prostate = system: PC-3 prostate
NCI-H226 lung = system: NCI-H226 lung
LOX IMVI melanoma = system: LOX IMVI melanoma
HL-60(TB) leukemia = system: HL-60(TB) leukemia
HOP-62 NSCLC = system: HOP-62 NSCLC
NCI/ADR-RES ovarian = system: NCI/ADR-RES ovarian
K-562 leukemia = system: K-562 leukemia
SF-539 CNS = system: SF-539 CNS
HCT-116 colon = system: HCT-116 colon
UO-31 renal = system: UO-31 renal
RXF 393 renal = system: RXF 393 renal
UACC-62 melanoma = system: UACC-62 melanoma
MOLT-4 leukemia = system: MOLT-4 leukemia
T-47D breast = system: T-47D breast
SK-MEL-28 melanoma = system: SK-MEL-28 melanoma
CAKI-1 renal = system: CAKI-1 renal
SK-MEL-2 melanoma = system: SK-MEL-2 melanoma
SF-268 CNS = system: SF-268 CNS
ACHN renal = system: ACHN renal
OVCAR-3 ovarian = system: OVCAR-3 ovarian
IGROV1 ovarian = system: IGROV1 ovarian
HCC-2998 colon = system: HCC-2998 colon
SF-295 CNS = system: SF-295 CNS
NCI-H23 lung = system: NCI-H23 lung
MCF7 breast = system: MCF7 breast
SN12C renal = system: SN12C renal
BT-549 breast = system: BT-549 breast
UACC-257 melanoma = system: UACC-257 melanoma
MALME-3M melanoma = system: MALME-3M melanoma
SW-620 colon = system: SW-620 colon
HCT-15 colon = system: HCT-15 colon
A498 renal = system: A498 renal
HS 578T breast = system: HS 578T breast
A549 NSCLC = system: A549 NSCLC
COLO 205 colon = system: COLO 205 colon
HT29 colon = system: HT29 colon

COc1cc2c(=O)[nH]c3cc([N+](=O)[O-])ccc3c2cc1[N+](=O)[O-]
88.1 µM: TGI (OVCAR-8 ovarian)
88 µM: TGI (SF-268 CNS)
> 100 µM: TGI (KM12 colon) | TGI (MDA-MB-231 breast) | TGI (HOP-92 NSCLC) | TGI (NCI-H522 lung) | TGI (CCRF-CEM leukemia) | TGI (786-0 renal) | TGI (DU-145 prostate) | TGI (SR leukemia) | TGI (EKVX NSCLC) | TGI (OVCAR-5 ovarian) | TGI (SK-MEL-5 melanoma) | TGI (TK-10 renal) | TGI (M14 melanoma) | TGI (SNB-19 CNS) | TGI (OVCAR-4 ovarian) | TGI (PC-3 prostate) | TGI (LOX IMVI melanoma) | TGI (HL-60(TB) leukemia) | TGI (NCI/ADR-RES ovarian) | TGI (K-562 leukemia) | TGI (SF-539 CNS) | TGI (HCT-116 colon) | TGI (UO-31 renal) | TGI (UACC-62 melanoma) | TGI (MOLT-4 leukemia) | TGI (T-47D breast) | TGI (SK-MEL-28 melanoma) | TGI (CAKI-1 renal) | TGI (SK-MEL-2 melanoma) | TGI (IGROV1 ovarian) | TGI (HCC-2998 colon) | TGI (SF-295 CNS) | TGI (NCI-H23 lung) | TGI (MCF7 breast) | TGI (SN12C renal) | TGI (BT-549 breast) | TGI (UACC-257 melanoma) | TGI (MALME-3M melanoma) | TGI (SW-620 colon) | TGI (HCT-15 colon) | TGI (A498 renal) | TGI (HS 578T breast) | TGI (A549 NSCLC) | TGI (COLO 205 colon) | TGI (HT29 colon)
inactive: GI50 (KM12 colon) 4.67 µM | GI50 (MDA-MB-231 breast) 6.1 µM | GI50 (HOP-92 NSCLC) 15.8 µM | GI50 (NCI-H522 lung) 1.67 µM | GI50 (CCRF-CEM leukemia) 3.99 µM | GI50 (OVCAR-8 ovarian) 3.3 µM | GI50 (786-0 renal) 11.9 µM | GI50 (DU-145 prostate) 4.63 µM | GI50 (SNB-75 CNS) 2.08 µM | GI50 (SR leukemia) 2.95 µM | GI50 (EKVX NSCLC) 7.08 µM | GI50 (OVCAR-5 ovarian) 63.4 µM | GI50 (SK-MEL-5 melanoma) 4.63 µM | GI50 (SK-OV-3 ovarian) 8.7 µM | GI50 (TK-10 renal) 3.29 µM | GI50 (M14 melanoma) 7 µM | GI50 (SNB-19 CNS) 24.1 µM | GI50 (OVCAR-4 ovarian) 5.16 µM | GI50 (PC-3 prostate) 6.07 µM | GI50 (NCI-H226 lung) 3.25 µM | GI50 (LOX IMVI melanoma) 3.51 µM | GI50 (HL-60(TB) leukemia) > 100 µM | GI50 (HOP-62 NSCLC) 7.38 µM | GI50 (NCI/ADR-RES ovarian) 5.29 µM | GI50 (K-562 leukemia) 5.97 µM | GI50 (SF-539 CNS) 4.65 µM | GI50 (HCT-116 colon) 2.25 µM | GI50 (UO-31 renal) 2.03 µM | GI50 (RXF 393 renal) 6.99 µM | GI50 (UACC-62 melanoma) 4.55 µM | GI50 (MOLT-4 leukemia) 3.9 µM | GI50 (T-47D breast) 3.52 µM | GI50 (SK-MEL-28 melanoma) > 100 µM | GI50 (CAKI-1 renal) 6.18 µM | GI50 (SK-MEL-2 melanoma) 22.9 µM | GI50 (SF-268 CNS) 4.42 µM | GI50 (ACHN renal) 3.71 µM | GI50 (OVCAR-3 ovarian) 3.85 µM | GI50 (IGROV1 ovarian) 3.87 µM | GI50 (HCC-2998 colon) 19.5 µM | GI50 (SF-295 CNS) 6.27 µM | GI50 (NCI-H23 lung) 3.69 µM | GI50 (MCF7 breast) 0.979 µM | GI50 (SN12C renal) 9.97 µM | GI50 (BT-549 breast) 7.89 µM | GI50 (UACC-257 melanoma) 3.28 µM | GI50 (MALME-3M melanoma) 9.91 µM | GI50 (SW-620 colon) 3.81 µM | GI50 (HCT-15 colon) 7.29 µM | GI50 (A498 renal) 2.46 µM | GI50 (HS 578T breast) 23.3 µM | GI50 (A549 NSCLC) 4.11 µM | GI50 (COLO 205 colon) 4.11 µM | GI50 (HT29 colon) 2.93 µM
91.4 µM: TGI (ACHN renal)
20 µM: TGI (SNB-75 CNS)
36.2 µM: TGI (HOP-62 NSCLC)
39.2 µM: TGI (NCI-H226 lung)
92.2 µM: TGI (RXF 393 renal)
31.7 µM: TGI (OVCAR-3 ovarian)
38.2 µM: TGI (SK-OV-3 ovarian)
